Experimental data reported in patent publication US8846928B2 (Portola Pharmaceuticals, Inc., priority 2010, dated 2014).

Target: T1, full length active recombinant SYK enzyme (Homo sapiens, UniProt P43405)
T1 construct: full length active recombinant SYK enzyme (Millipore, Calif.); purchased Millipore
Test: Inhibition of Syk tyrosine phosphorylation activity (LANCE TR-FRET kinase assay)
Type: biochemical
Procedure: Inhibition of Syk Tyrosine Phosphorylation Activity
Potency of candidate molecules for inhibiting Syk tyrosine phosphorylation activity is assessed by measuring the ability of a test compound to inhibit Syk-mediated tyrosine phosphorylation of a Syk-specific substrate.
SYK tyrosine phosphorylation activity is measured using the LANCE™ Technology developed by Perkin Elmer Life and Analytical Sciences (Boston, Mass.). LANCE™ refers to homogeneous time resolved fluorometry applications using techniques such as time-resolved fluorescence resonance energy transfer assay (TR-FRET) (see generally for procedures in Perkin Elmer Application Note—How to Optimize a Tyrosine Kinase Assay Using Time Resolved Fluorescence-Based LANCE Detection, wwww.perkinelmer.com/lifesciences). The assay principle involves detection of a phosphorylated substrate using energy transfer from a phosphospecific europium-labeled antibody to streptavidin-allophycocyanin as an acceptor.
To test the ability of candidate molecules to inhibit SYK tyrosine phosphorylation activity, molecules are reconstituted in 30% DMSO and serially diluted 1:3 with the final dilution containing DMSO in the absence of the candidate molecule. The final DMSO concentration in the assay is 3%. Kinase assays are performed as a two part reaction. […] The second reaction involves termination of the kinase reaction and the simultaneous addition of the detection reagents—europium-labeled anti-phosphotyrosine reagent (Eu-W1024-PY100, Perkin Elmer, Boston, Mass.) and Streptavidin-Allophycocyanin detection reagent (SA-APC, Prozyme, Calif.). The kinase reaction is performed in a black U-bottom 96-well microtitre plate. The final reaction volume is 50 μL and contains a final concentration of 1 nM active SYK enzyme, 550 nM SYK-substrate, and 100 μM ATP diluted in a buffer containing 50 mM Tris pH 7.5, 5 mM MgCl2, and 1 mM DTT. The reaction is allowed to proceed for 1 hour at room temperature. The quench buffer contains 100 mM Tris pH 7.5, 300 mM NaCl2, 20 mM EDTA, 0.02% Brij35, and 0.5% BSA. The detection reagents are added to the reaction mixture at the following dilutions-1:500 for Eu-W1024-PY100 and 1:250 for SA-APC. The kinase reaction is terminated by the addition of 50 μL quench buffer containing the detection reagents. The detection is allowed to proceed for 1 hr at room temperature. Detection of the phosphorylated substrate in the absence and presence of inhibitors is measured in the TR-FRET instrument, Analyst HT (Molecular Probes, Sunnyvale, Calif.) and the condition for measurements are set up using CriterionHost Release 2.0 (Molecular Probes, Sunnyvale, Calif.). The settings used are a follows: excitation 360 nm, emission 665-7.5 nm, beam splitter 350 nm 50/50, flash 100 pulses, delay 60 us, integration 400 us, z-height 2 mm. […] IC50s were derived by non-linear regression analysis. […]

| SMILES | IC50 [nM] |
| --- | --- |
| NC(=O)c1cc(F)c(N[C@@H]2CCCC[C@@H]2N)nc1Nc1ccc2ncccc2c1 [Example 66, 6-((1R,2S)-2-aminocyclohexylamino)-5-fluoro-2-(quinolin-6-ylamino)nicotinamide] | < 1 |
| NC(=O)c1cc(F)c(N[C@@H]2CCCC[C@@H]2N)nc1Nc1ccc2cccnc2c1 [Example 69, 6-((1R,2S)-2-aminocyclohexylamino)-5-fluoro-2-(quinolin-7-ylamino)nicotinamide] | 1 to 10 |
| NC(=O)c1cc(F)c(N[C@@H]2CCCC[C@@H]2N)nc1Nc1ccnc2ccccc12 [Example 72] | 1 to 10 |
| NC(=O)c1cc(F)c(N[C@@H]2CCCC[C@@H]2N)nc1Nc1cccc2cnccc12 [Example 74, 6-((1R,2S)-2-aminocyclohexylamino)-5-fluoro-2-(isoquinolin-5-ylamino)nicotinamide] | 1 to 10 |
| NC(=O)c1cc(F)c(N[C@@H]2CCCC[C@@H]2N)nc1Nc1cccc2ccncc12 [Example 75, 6-((1R,2S)-2-aminocyclohexylamino)-5-fluoro-2-(isoquinolin-8-ylamino)nicotinamide] | 100 to 1000 |
| NC(=O)c1cc(F)c(N[C@@H]2CCCC[C@@H]2N)nc1Nc1ccc2nccnc2c1 [Example 76, 6-((1R,2S)-2-aminocyclohexylamino)-5-fluoro-2-(quinoxalin-6-ylamino)nicotinamide] | 1 to 10 |
| COCCOc1cccc(Nc2nc(N[C@@H]3CCCC[C@@H]3N)c(F)cc2C(N)=O)c1 [Example 79, 6-((1R,2S)-2-aminocyclohexylamino)-5-fluoro-2-(3-(2-methoxyethoxy)phenylamino)nicotinamide] | 1 to 10 |
| Cc1cc(Nc2nc(N[C@@H]3CCCC[C@@H]3N)c(F)cc2C(N)=O)sn1 [Example 82, 6-((1R,2S)-2-aminocyclohexylamino)-5-fluoro-2-(3-methylisothiazol-5-ylamino)nicotinamide] | 1 to 10 |
| Cn1cc(Nc2nc(N[C@@H]3CCCC[C@@H]3N)c(F)cc2C(N)=O)cn1 [Example 83, 6-((1R,2S)-2-aminocyclohexylamino)-5-fluoro-2-(1-methyl-1H-pyrazol-4-ylamino)nicotinamide] | 10 to 100 |
| NC(=O)c1cc(F)c(N[C@@H]2CCCC[C@@H]2N)nc1Nc1ccnnc1 [Example 84] | 100 to 1000 |
| COc1cncc(Nc2nc(N[C@@H]3CCCC[C@@H]3N)c(F)cc2C(N)=O)c1 [Example 88, 6-((1R,2S)-2-aminocyclohexylamino)-5-fluoro-2-(5-methoxypyridin-3-ylamino)nicotinamide] | 1 to 10 |
| COC[C@H](CN)Nc1nc(Nc2cccc(-n3nccn3)c2)c(C(N)=O)cc1F [Example 91, (S)-2-(3-(2H-1,2,3-triazol-2-yl)phenylamino)-6-(1-amino-3-methoxypropan-2-ylamino)-5-fluoronicotinamide] | 1 to 10 |
| CC[C@H](CN)Nc1nc(Nc2ccc3ncccc3c2)c(C(N)=O)cc1F [Example 94, (R)-6-(1-aminobutan-2-ylamino)-5-fluoro-2-(quinolin-6-ylamino)nicotinamide] | 1 to 10 |
| CC[C@H](CN)Nc1nc(Nc2cncc(OC)c2)c(C(N)=O)cc1F [Example 96, (R)-6-(1-aminobutan-2-ylamino)-5-fluoro-2-(5-methoxypyridin-3-ylamino)nicotinamide] | 10 to 100 |
| CC[C@@H](Nc1nc(Nc2ccc3cccnc3c2)c(C(N)=O)cc1F)C(N)=O [Example 97, (R)-6-(1-amino-1-oxobutan-2-ylamino)-5-fluoro-2-(quinolin-7-ylamino)nicotinamide] | 10 to 100 |

Next, values leading:

| IC50 [nM] | SMILES |
| --- | --- |
| < 1 | Cn1ccc2c(Nc3nc(N[C@@H]4CCCC[C@@H]4N)c(F)cc3C(N)=O)cccc21 [Example 64, 6-((1R,2S)-2-aminocyclohexylamino)-5-fluoro-2-(1-methyl-1H-indol-4-ylamino)nicotinamide] |
| 100 to 1000 | Cn1cc2c(Nc3nc(N[C@@H]4CCCC[C@@H]4N)c(F)cc3C(N)=O)cccc2n1 [Example 65, 6-((1R,2S)-2-aminocyclohexylamino)-5-fluoro-2-(2-methyl-2H-indazol-4-ylamino)nicotinamide] |
| < 1 | NC(=O)c1cc(F)c(N[C@@H]2CCCC[C@@H]2N)nc1Nc1ccc2cnccc2c1 [Example 67, 6-((1R,2S)-2-aminocyclohexylamino)-5-fluoro-2-(isoquinolin-6-ylamino)nicotinamide] |
| 1 to 10 | NC(=O)c1cc(F)c(N[C@@H]2CCCC[C@@H]2N)nc1Nc1ccc2ccncc2c1 [Example 68, 6-((1R,2S)-2-aminocyclohexylamino)-5-fluoro-2-(isoquinolin-7-ylamino)nicotinamide] |
| 1 to 10 | NC(=O)c1cc(F)c(N[C@@H]2CCCC[C@@H]2N)nc1Nc1cnc2ccccc2c1 [Example 70, 6-((1R,2S)-2-aminocyclohexylamino)-5-fluoro-2-(quinolin-3-ylamino)nicotinamide] |
| 1 to 10 | NC(=O)c1cc(F)c(N[C@@H]2CCCC[C@@H]2N)nc1Nc1cncc2ccccc12 [Example 71, 6-((1R,2S)-2-aminocyclohexylamino)-5-fluoro-2-(isoquinolin-4-ylamino)nicotinamide] |
| 1 to 10 | NC(=O)c1cc(F)c(N[C@@H]2CCCC[C@@H]2N)nc1Nc1cccc2ncccc12 [Example 73, 6-((1R,2S)-2-aminocyclohexylamino)-5-fluoro-2-(quinolin-5-ylamino)nicotinamide] |
| 10 to 100 | NC(=O)c1cc(F)c(N[C@@H]2CCCC[C@@H]2N)nc1Nc1cnc2nccnc2c1 [Example 77, 6-((1R,2S)-2-aminocyclohexylamino)-5-fluoro-2-(pyrido[3,2-b]pyrazin-7-ylamino)nicotinamide] |
| 1 to 10 | NC(=O)c1cc(F)c(N[C@@H]2CCCC[C@@H]2N)nc1Nc1ccc2c(c1)OCCO2 [Example 78] |
| 1 to 10 | NC(=O)c1cc(F)c(N[C@@H]2CCCC[C@@H]2N)nc1Nc1cccc(OC2CCOCC2)c1 [Example 80, 6-((1R,2S)-2-aminocyclohexylamino)-5-fluoro-2-(3-(tetrahydro-2H-pyran-4-yloxy)phenylamino)nicotinamide] |
| 10 to 100 | NC(=O)c1cc(F)c(N[C@@H]2CCCC[C@@H]2N)nc1Nc1ccc(OC2CCOCC2)cc1 [Example 81, 6-((1R,2S)-2-aminocyclohexylamino)-5-fluoro-2-(4-(tetrahydro-2H-pyran-4-yloxy)phenylamino)nicotinamide] |
| 1 to 10 | Cc1cc(Nc2nc(N[C@@H]3CCCC[C@@H]3N)c(F)cc2C(N)=O)ccn1 [Example 85, 6-((1R,2S)-2-aminocyclohexylamino)-5-fluoro-2-(2-methylpyridin-4-ylamino)nicotinamide] |
| 1 to 10 | Cc1cc(Nc2nc(N[C@@H]3CCCC[C@@H]3N)c(F)cc2C(N)=O)cc(C)n1 [Example 86, 6-((1R,2S)-2-aminocyclohexylamino)-2-(2,6-dimethylpyridin-4-ylamino)-5-fluoronicotinamide] |
| 1 to 10 | Cc1cncc(Nc2nc(N[C@@H]3CCCC[C@@H]3N)c(F)cc2C(N)=O)c1 [Example 87, 6-((1R,2S)-2-aminocyclohexylamino)-5-fluoro-2-(5-methylpyridin-3-ylamino)nicotinamide] |
| 1 to 10 | NC(=O)c1cc(F)c(N[C@@H]2CCCC[C@@H]2N)nc1Nc1cncc(F)c1 [Example 89, 6-((1R,2S)-2-aminocyclohexylamino)-5-fluoro-2-(5-fluoropyridin-3-ylamino)nicotinamide] |
| 10 to 100 | CC[C@H](CN)Nc1nc(Nc2cccc(-c3ncccn3)c2)c(C(N)=O)cc1F [Example 92, (R)-6-(1-aminobutan-2-ylamino)-5-fluoro-2-(3-(pyrimidin-2-yl)phenylamino)nicotinamide] |
| 1 to 10 | CC[C@H](CN)Nc1nc(Nc2ccc3ncsc3c2)c(C(N)=O)cc1F [Example 93, (R)-6-(1-aminobutan-2-ylamino)-2-(benzo[d]thiazol-6-ylamino)-5-fluoronicotinamide] |
| 10 to 100 | CC[C@H](CN)Nc1nc(Nc2cncc(C)c2)c(C(N)=O)cc1F [Example 95, (R)-6-(1-aminobutan-2-ylamino)-5-fluoro-2-(5-methylpyridin-3-ylamino)nicotinamide] |
